Measurements: patent publication US20100135905A1, “ASSESSMENT OF CANCER SUSCEPTIBILITY TO MOLECULAR TARGETED THERAPY BY USE OF RECOMBINANT PEPTIDES” (priority 2004, published 2010)

What was measured:
HUVECs [1] = experiment: Apoptotic nuclei in HUVECs, H&E staining; type: cell-based, human; settings: 24 hours
Description: After a 24-hour incubation period, cells were fixed and stained with Hematoxylin and Eosin (H&E). Five high-powered fields (400×) were observed and counted for each experimental group.

HUVECs [2] = experiment: Clonogenic survival of HUVECs; type: cell-based, human; settings: SU11248 prior to irradiation compared to radiation alone (p<0.05)
tumor vasculature = experiment: Tumor vascular length density, intravital tumor vascular window; type: in vivo, mice
Description: Tumor vascular linear density was measured by use of intravital tumor vascular window. […] Five mice were treated in each of the treatment groups, and the vascular length density after treatment was quantified.

tumor endothelial cells = experiment: TUNEL staining of treated tumor sections; type: in vivo
LLC tumors [3] = experiment: Tumor growth delay, LLC hind limb tumors; type: in vivo, mice
Description: As disclosed herein, the induction of apoptosis correlated with the biological response in tumor blood vessels and tumor growth delay. […] Both the inhibitor and radiation were discontinued after day 8. […] Time to doubling of LLC tumor size was 5, 6, 8, and 16 days for each group, respectively.

LLC tumors [4] = experiment: Tumor growth delay with SU11248, LLC tumors; type: in vivo, nude mice; settings: drug alone
Description: (§1) D54 and LLC tumors were implanted into both hind limbs of nude mice as described in Example 2. Tumors were grown over the course of seven to 10 days.
(§2) In comparison, LLC tumors responded to SU11248 alone or in combination with radiation.

D54 tumors = experiment: Tumor growth delay with SU11248, D54 tumors; type: in vivo, nude mice; settings: SU11248 alone
Description: as §1, §2

[5] = system: A431, Colo205, H460, C6 and SF763T tumors; settings: regression, growth arrest or growth delay of xenografts; cited from earlier work

With `CCN(CC)CCNC(=O)c1c(C)[nH]c(/C=C2\C(=O)Nc3ccc(F)cc32)c1C` [SU11248] the “Percentage of endothelial cells with apoptotic nuclei” value (HUVECs [1]; 100 nM SU11248 alone) was 7%, the “Percentage of endothelial cells with apoptotic nuclei” value (HUVECs [1]; 100 nM SU11248 followed by 6 Gy) was 21% and the Clonogenic survival (HUVECs [2]) was “significant reduction in clonogenic survival”. For the same compound, the “Vascular length density (VLD) in tumors” value (tumor vasculature; SU11248 40 mg/kg followed by 3 Gy, within 72 hours) was 8 % of that at 0 hours, the “Vascular length density (VLD) in tumors” value (tumor vasculature; SU11248 alone) was 84 % that of 0 hour and the “Threshold radiation dose for induction of apoptosis” value (tumor endothelial cells; SU11248 administered prior to irradiation, tumor endothelium) was 2 Gy. For the same compound, the “TUNEL staining of tumor sections” value (tumor endothelial cells; SU11248 alone) was “no TUNEL staining”, the “TUNEL staining of tumor sections” value (tumor endothelial cells; SU11248 followed by 3 Gy, co-localization with vWF) was “positive TUNEL staining in endothelial cells” and the “Time to doubling of LLC tumor size” value (LLC tumors [3]; SU11248 40 mg/kg i.p. 30 minutes before each 3 Gy dose (21 Gy total)) was 16 days. For the same compound, the “Time to doubling of LLC tumor size” value (LLC tumors [3]; SU11248 40 mg/kg i.p. daily, seven administrations, alone) was 6 days, the Tumor growth delay (LLC tumors [4]) was “showed a tumor growth delay” and the Tumor growth delay (D54 tumors) was “did not show tumor growth delay”. For the same compound, the “Anti-tumor activity in mice” value [5] was “broad and potent anti-tumor activity”.
